Experimental data: patent US12691156B2, “Prebiotic compositions and method for promoting growth of Hafnia alvei by using the same” (TCI CO., LTD., priority 2022, dated 2026)

System: Hafnia alvei BCRC10906
Assay: Influence of prebiotic compositions in different combinations on Hafnia alvei growth (OD600, Embodiment 4)
Type: cell-based
Conditions: for ability to promote the growth of Hafnia alvei (in words) / Relative bacterial count (%): 1 g formula in 10 mL BHI, 24 hours; for Absorbance (OD600): 10 mL BHI medium containing 1 g formula, anaerobic culture 37° C. 24 hours, control group 0.078 ± 0.039; for Relative bacterial count (%): converted from OD600, control group = 100 ± 50
From the text: The groups were divided into a control group and 11 experimental groups. The experimental groups included 6 single-formula experimental groups and 5 complex-formula experimental groups, namely a single-formula experimental group to a single-formula experimental group, and a complex-formula experimental group to a complex-formula experimental group. The adopted liquid medium was a brain heart infusion broth (BHI, hereinafter referred to as the BHI medium, and purchased from DifcoTM). The adopted test strains were Hafnia alvei BCRC10906 purchased from Bioresource Collection and Research Center (BCRC). Each group is shown as Table 5. Control group: No prebiotics were added, and the experimental medium was 10 ml of the BHI medium. 6 single-formula experimental groups: A single-formula experimental group containing erythritol (purchased from SWEET TOWN ENTERPRISE CORP.), a single-formula experimental group containing arabinose (purchased from […] Co., Ltd.), a single-formula experimental group containing Arabic gum (purchased from Buildmore Enterprise Co., Ltd.), a single-formula experimental group containing fructooligosaccharide (purchased from Panel Japan Co., Ltd.), a single-formula experimental group containing soybean peptide powder (purchased from FUJI OIL Co. Ltd.), and a single-formula experimental group containing the black tea ferment prepared in Embodiment 1. The experimental medium of each group was 10 ml of the BHI medium containing 1 g of prebiotics (namely, erythritol, arabinose, Arabic gum, fructooligosaccharide, soybean peptide powder, the black tea ferment prepared in Embodiment 1. The 6 single-formula experimental groups were also called single-ingredient formulas to [6]). 5 complex-formula experimental groups: A complex-formula experimental group containing the black tea ferment prepared in Embodiment 1 and the soybean peptide powder; a complex-formula experimental group containing the black tea ferment prepared in Embodiment 1, the soybean peptide powder and erythritol; a complex-formula experimental group containing the black tea ferment prepared in Embodiment 1, the soybean peptide powder and fructooligosaccharide; a complex-formula experimental group containing the black tea ferment prepared in Embodiment 1, the soybean peptide powder and arabinose; and a complex-formula experimental group containing the black tea ferment prepared in Embodiment 1, the soybean peptide powder and Arabic gum. The weight ratio of the prebiotic compositions of the complex-formula experimental groups was 1:1 or 1:1:1. The experimental medium of each group was 10 ml of the BHI medium containing 1 g of prebiotic composition (namely, a combination of 0.5 g of the black tea ferment prepared in Embodiment 1 and 0.5 g of the soybean peptide powder, a combination of about 0.33 g of the black tea ferment prepared in Embodiment 1, about 0.33 g of the soybean peptide powder and about 0.33 g of erythritol, a combination of about 0.33 g of the black tea ferment prepared in Embodiment 1, about 0.33 g of the soybean peptide powder and about 0.33 g of fructooligosaccharide , a combination of about 0.33 g of the black tea ferment prepared in Embodiment 1, about 0.33 g of the soybean peptide powder and about 0.33 g of arabinose, and a combination of about 0.33 g of the black tea ferment prepared in Embodiment 1, about 0.33 g of the soybean peptide powder and about 0.33 g of Arabic gum; and the 5 complex-formula experimental groups are also referred to as complex-ingredient formulas to [5]). [table] Firstly, 5% (v/v) of Hafnia alvei was inoculated to the BHI medium, and activated in an anaerobic operation box (5% of hydrogen, 10% of carbon dioxide and 85% of nitrogen) at 37° C. for 24 hours to obtain an experimental bacterial solution. […]

| SMILES | ability to promote the growth of Hafnia alvei (in words) | Absorbance (OD600) | Absorbance (OD600) (listed as single-formula experimental group [1]) | Relative bacterial count (%) | Absorbance (OD600) (listed as single-formula experimental group [2]) |
| --- | --- | --- | --- | --- | --- |
| OC[C@@H](O)[C@@H](O)CO [Single-formula experimental group [1], Erythritol] | promoted the growth of Hafnia alvei | 0.169 ± 0.026 | 0.169±0.026 | 217 ± 34 |  |
| O=C[C@@H](O)[C@H](O)[C@H](O)CO [Single-formula experimental group [2], Arabinose] | promoted the growth of Hafnia alvei | 0.176 ± 0.038 |  | 226 ± 49 | 0.176±0.038 |
